In the supplement of paper PMC11208160:

assay: recombinant UMI read abundance after kanamycin selection (control-corrected) (log10(CPM+1)); higher = more efficient recombination; extreme values may be limits of the assay; sequences stand for … in AGTGCAGAGAAAATCGGCCAGTTTTCTCTGCCTGCAGTCCGCATGCCGTGGGACCCCTTGGGTTCTAACCTGTTGCCTAGATTTATGCAGCGGACTGCCTTTCTCCCAAAGTGATAAACCGG…AGGTTGGTTTCACT; site = the 11-nt donor
How it was run: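 In a pooled Escherichia coli screen for the IS621 bridge recombinase, donor and donor-binding-loop pairs were each placed with a 12-nt UMI on a plasmid bearing a promoterless kanamycin gene. This library was co-electroporated with a target plasmid encoding a fixed target and T7-inducible recombinase, and cells were plated either on IPTG (0.07 mM) plus kanamycin or without selection, in two replicates each. Recombinant UMIs were PCR-amplified across the donor–target junction and sequenced, and counts were converted to CPM, averaged over replicates, scaled by control-derived factors and reported as log10(CPM+1).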
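Note: IS621 bridge recombinase in Escherichia coli cells against a fixed T5 target plasmid.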

Point of comparison: “GTGGAGTCATGGACCGGTTTTCCCGGTAATCCGTATTTGTG (site GTGGAGGCTCA)”, “recombinant UMI read abundance (log10)” value 0.00513. Against it:
- GTGATAACATGGACCGGTTTTCCCGGTAATCCGTATTTGGC (site GTGATAACTGC) — higher, 2.59
- GTGATGACATGGACCGGTTTTCCCGGTAATCCGTATTTGGC (site GTGATGACTGC) — higher, 2.09
- GTGATGCCATGGACCGGTTTTCCCGGTAATCCGTATTTGAT (site GTGATGCCTAT) — higher, 1.41
- GTGATGTCATGGACCGGTTTTCCCGGTAATCCGTATTTGGA (site GTGATGTCTTC) — higher, 2.57
- GTGCACGCATGGACCGGTTTTCCCGGTAATCCGTATTTGGT (site GTGCAAGCTAC) — higher, 0.553
- GTGCACGCATGGACCGGTTTTCCCGGTAATCCGTATTTGGT (site GTGCACGCTAC) — higher, 1.75
- GTGCACGCATGGACCGGTTTTCCCGGTAATCCGTATTTGGT (site GTGCAGGCTAC) — within 0.2 log units, 0.00611
- GTGCACGCATGGACCGGTTTTCCCGGTAATCCGTATTTGGT (site GTGCATGCTAC) — within 0.2 log units, 0.0143
- GTGCGAGCATGGACCGGTTTTCCCGGTAATCCGTATTTGCA (site GTACGAGCTTG) — higher, 2.68
- GTGCGAGCATGGACCGGTTTTCCCGGTAATCCGTATTTGCA (site GTCCGAGCTTG) — higher, 0.724
- GTGCGAGCATGGACCGGTTTTCCCGGTAATCCGTATTTGCA (site GTGCGAGCTTG) — higher, 2.81
- GTGCGAGCATGGACCGGTTTTCCCGGTAATCCGTATTTGCA (site GTTCGAGCTTG) — higher, 1.48
- GTGCGTACATGGACCGGTTTTCCCGGTAATCCGTATTTGCT (site GTGCGTACTAG) — higher, 2.23
- GTGCGTCCATGGACCGGTTTTCCCGGTAATCCGTATTTGTG (site GTGCGTCCTCA) — within 0.2 log units, 0.0594
- GTGCTACCATGGACCGGTTTTCCCGGTAATCCGTATTTGGG (site GTGCTACCTCC) — within 0.2 log units, 0.0107
- GTGGAAGCATGGACCGGTTTTCCCGGTAATCCGTATTTGAA (site GTGGAAGCTTT) — higher, 2.55
- GTGGAGTCATGGACCGGTTTTCCCGGTAATCCGTATTTGTG (site GTGGAGACTCA) — higher, 1.34
- GTGGAGTCATGGACCGGTTTTCCCGGTAATCCGTATTTGTG (site GTGGAGCCTCA) — higher, 0.572
- GTGGAGTCATGGACCGGTTTTCCCGGTAATCCGTATTTGTG (site GTGGAGTCTCA) — higher, 2.76
- GTGGCAACATGGACCGGTTTTCCCGGTAATCCGTATTTGCG (site GTGGCAACTCG) — higher, 1.03
- GTGGCAACATGGACCGGTTTTCCCGGTAATCCGTATTTGTA (site GTGGCAACTTA) — higher, 0.85
- GTGGGCCCATGGACCGGTTTTCCCGGTAATCCGTATTTGTC (site GTGGGCCCTGA) — higher, 0.429
- GTGGGCGCATGGACCGGTTTTCCCGGTAATCCGTATTTGGG (site GTGGGCGCTCC) — higher, 0.22
- GTGTACCCATGGACCGGTTTTCCCGGTAATCCGTATTTGGC (site GTGTACCCTGC) — higher, 0.705
- GTGTACGCATGGACCGGTTTTCCCGGTAATCCGTATTTGTC (site GTGTACGCTGA) — higher, 2.81
- GTGTTGACATGGACCGGTTTTCCCGGTAATCCGTATTTGTG (site GTGTTGACTCA) — higher, 1.33
- GTTAAAGCATGGACCGGTTTTCCCGGTAATCCGTATTTGTA (site GTTAAAGCTTA) — higher, 2.59
- GTTAACGCATGGACCGGTTTTCCCGGTAATCCGTATTTGGA (site GTTAACGCTTC) — higher, 0.944
- GTTACAACATGGACCGGTTTTCCCGGTAATCCGTATTTGAT (site GTTACAACTAT) — higher, 0.492
- GTTACGTCATGGACCGGTTTTCCCGGTAATCCGTATTTGTT (site GATACGTCTAA) — within 0.2 log units, 0.0159
- GTTACGTCATGGACCGGTTTTCCCGGTAATCCGTATTTGTT (site GCTACGTCTAA) — within 0.2 log units, 0.00335
- GTTACGTCATGGACCGGTTTTCCCGGTAATCCGTATTTGTT (site GGTACGTCTAA) — within 0.2 log units, 0.00806
- GTTACGTCATGGACCGGTTTTCCCGGTAATCCGTATTTGTT (site GTTACGTCTAA) — higher, 0.504
- GTTAGAACATGGACCGGTTTTCCCGGTAATCCGTATTTGGC (site ATTAGAACTGC) — within 0.2 log units, 0
- GTTAGAACATGGACCGGTTTTCCCGGTAATCCGTATTTGGC (site CTTAGAACTGC) — within 0.2 log units, 0
- GTTAGAACATGGACCGGTTTTCCCGGTAATCCGTATTTGGC (site GATAGAACTGC) — within 0.2 log units, 0
- GTTAGAACATGGACCGGTTTTCCCGGTAATCCGTATTTGGC (site GCTAGAACTGC) — within 0.2 log units, 0
- GTTAGAACATGGACCGGTTTTCCCGGTAATCCGTATTTGGC (site GGTAGAACTGC) — within 0.2 log units, 0
- GTTAGAACATGGACCGGTTTTCCCGGTAATCCGTATTTGGC (site GTAAGAACTGC) — within 0.2 log units, 0
- GTTAGAACATGGACCGGTTTTCCCGGTAATCCGTATTTGGC (site GTCAGAACTGC) — within 0.2 log units, 0
- GTTAGAACATGGACCGGTTTTCCCGGTAATCCGTATTTGGC (site GTGAGAACTGC) — within 0.2 log units, 0
- GTTAGAACATGGACCGGTTTTCCCGGTAATCCGTATTTGGC (site GTTAAAACTGC) — within 0.2 log units, 0
- GTTAGAACATGGACCGGTTTTCCCGGTAATCCGTATTTGGC (site GTTACAACTGC) — within 0.2 log units, 0
- GTTAGAACATGGACCGGTTTTCCCGGTAATCCGTATTTGGC (site GTTAGAACTAC) — within 0.2 log units, 0.00468
- GTTAGAACATGGACCGGTTTTCCCGGTAATCCGTATTTGGC (site GTTAGAACTCC) — within 0.2 log units, 0.0522
- GTTAGAACATGGACCGGTTTTCCCGGTAATCCGTATTTGGC (site GTTAGAACTGA) — within 0.2 log units, 0
- GTTAGAACATGGACCGGTTTTCCCGGTAATCCGTATTTGGC (site GTTAGAACTGC) — higher, 1.59
- GTTAGAACATGGACCGGTTTTCCCGGTAATCCGTATTTGGC (site GTTAGAACTGG) — within 0.2 log units, 0
- GTTAGAACATGGACCGGTTTTCCCGGTAATCCGTATTTGGC (site GTTAGAACTGT) — within 0.2 log units, 0
- GTTAGAACATGGACCGGTTTTCCCGGTAATCCGTATTTGGC (site GTTAGAACTTC) — within 0.2 log units, 0
- GTTAGAACATGGACCGGTTTTCCCGGTAATCCGTATTTGGC (site GTTAGACCTGC) — within 0.2 log units, 0
- GTTAGAACATGGACCGGTTTTCCCGGTAATCCGTATTTGGC (site GTTAGAGCTGC) — within 0.2 log units, 0.0184
- GTTAGAACATGGACCGGTTTTCCCGGTAATCCGTATTTGGC (site GTTAGATCTGC) — higher, 0.83
- GTTAGAACATGGACCGGTTTTCCCGGTAATCCGTATTTGGC (site GTTAGCACTGC) — higher, 0.506
- GTTAGAACATGGACCGGTTTTCCCGGTAATCCGTATTTGGC (site GTTAGGACTGC) — within 0.2 log units, 0.0154
- GTTAGAACATGGACCGGTTTTCCCGGTAATCCGTATTTGGC (site GTTAGTACTGC) — within 0.2 log units, 0
- GTTAGAACATGGACCGGTTTTCCCGGTAATCCGTATTTGGC (site GTTATAACTGC) — higher, 1.54
- GTTAGAACATGGACCGGTTTTCCCGGTAATCCGTATTTGGC (site GTTCGAACTGC) — within 0.2 log units, 0
- GTTAGAACATGGACCGGTTTTCCCGGTAATCCGTATTTGGC (site GTTGGAACTGC) — higher, 0.696
- GTTAGAACATGGACCGGTTTTCCCGGTAATCCGTATTTGGC (site GTTTGAACTGC) — within 0.2 log units, 0
- GTTAGAACATGGACCGGTTTTCCCGGTAATCCGTATTTGGC (site TTTAGAACTGC) — within 0.2 log units, 0
- GTTAGAACATGGACCGGTTTTCCCGGTAATCCGTATTTGGT (site GTTAGAACTAC) — higher, 0.908
- GTTAGAACATGGACCGGTTTTCCCGGTAATCCGTATTTGGT (site GTTAGAACTCC) — within 0.2 log units, 0.0129
- GTTAGAACATGGACCGGTTTTCCCGGTAATCCGTATTTGGT (site GTTAGAACTGC) — within 0.2 log units, 0
- GTTAGAACATGGACCGGTTTTCCCGGTAATCCGTATTTGGT (site GTTAGAACTTC) — within 0.2 log units, 0.0194
- GTTAGACCATGGACCGGTTTTCCCGGTAATCCGTATTTGGA (site GTTAGACCTTC) — within 0.2 log units, 0.00772
- GTTAGACCATGGACCGGTTTTCCCGGTAATCCGTATTTGGC (site GTTAGAACTGC) — within 0.2 log units, 0
